Here are results for 3 compounds from US20170166879A1, “NOVEL (R)-HYDROXYNITRILE LYASE” (PUBLIC UNIVERSITY CORPORATION TOYAMA PREFECTURAL UNIVERSITY, priority 2014, published 2017).

Series [1] concerns S-HNL derived from Baliospermum. To be noted: cited from earlier work.
Series [2] concerns the target T1, R-ChHNL (Chamberlinius hualienensis, UniProt A0A0H5BR52). The series is described as follows: Substrate identification by cyanohydrin synthetic reaction. It is filed as biochemical. To be noted: 50 mM carbonyl compound, 100 mM KCN, pH 4.2, 25° C., 5 minutes (aliphatic: 2 hours).
The target in series [3] is T1, R-ChHNL. The series is described as follows: Dynamic (kinetic) analysis, aldehyde substrates, Hanes-Woolf plot.
Series [4] is classed as biochemical, Chamberlinius hualienensis. Here is the method: The stability to temperature was measured by performing the reaction in a reaction mixture of pH 7.0 at the temperature range of 0 to 70° C. for 1 hour. In addition, the reaction was similarly performed except that the reaction temperature was adjusted to 20° C. and pH was changed in the range of 3 to 11. In the reaction, citrate-phosphate buffer was used when pH was 3 to 8, and glycine-NaOH buffer was used when pH was 8 to 11. The enzyme activity was measured according to the method described in Dadashipour et al. (2011). […] In addition, the relation between the reaction temperature and the remaining activity and the relation between the reaction pH and the remaining activity of both R-ChHNLs are respectively shown in FIG. 7(A) and FIG. 7(B).

Series [5] can be described thus: Decomposition reaction from racemic mandelonitrile to benzaldehyde, absorbance at 280 nm. Type of series: biochemical, Chamberlinius hualienensis. To be noted: purified enzyme; decomposition: 2 mM racemic mandelonitrile, pH 5.0-5.5, 22° C.

As to `N.N#CS` [ammonium thiocyanate], the “inhibition of S-HNL” value in series [1] is “strongly inhibits”.
Consider `O=Cc1ccccc1` [benzaldehyde], for which, on R-ChHNL [2], the “activity of R-ChHNL on the carbonyl compound as substrate” value was “recognizes”. The “max S.A. (specific activity)” value turned out to be 7433 U/mg on R-ChHNL [3] (pH5.2, 22° C.) and 17141 U/mg at R-ChHNL [3] (pH5.8, 35° C.). For the same compound, the “relative S.A.” value at R-ChHNL [3] (pH5.2, 22° C., the reference case (100)) was determined as 100; at R-ChHNL [3] (pH5.8, 35° C., relative to benzaldehyde at pH 5.2 and 22° C.), 230.6.
As for “R-ChHNL: (R)-hydroxynitrile lyase purified from Chamberlinius hualienensis, amino acid sequence SEQ ID NO: 3, homodimer”, in series [4], the “stability to pH (remaining activity)” value is “stability in broad pH range”. For the same compound, the “pH of maximum activity” value in series [4] (20° C., pH 3 to 11, FIG. 5) is listed as 5.8. Besides, the “activity after heating at 60° C.” value in series [4] (60° C. for 1 hour or longer, FIG. 6) is on record as “maintained”. Also, in series [4] (75° C. for 1 hour), the “activity maintained after heating at 75° C.” value is listed as 20%. Moreover, in series [4] (FIG. 6), the optimum temperature stood at 35 ° and the “temperature at which high activity is exhibited” value is not above 60 °C. For the same compound, the “activity at pH 4 as share of maximum activity value” in series [4] (pH 4, FIG. 5) is “about 10%”. The “activity in cyanohydrin synthesis direction relative to activity in cyanohydrin decomposition reaction” value in series [5] is 2.6 times.
